Experimental data: US20130131029A1, “ANTISOLVENT SOLIDIFICATION PROCESS” (MSD Oss B.V., priority 2005, published 2013)

Experiments:
[1] = Crystal size distribution (CSD) by laser diffraction (Mastersizer 2000, Fraunhofer model); assay type: physicochemical
[2] = as above; assay type: physicochemical; remark: listed apart in the source
From the text: The solid, preferably crystalline, particles obtainable by a process as described above advantageously have a high purity and, furthermore, a narrow particle size range, such as were not obtainable by prior art processes. The span, defined as (d90-d10)/d50, wherein d50, d10, and d90 can be understood to mean that 50%, 10%, and 90%, respectively, of the particles having a particle size smaller than or equal to the indicated value as determined by conventional laser diffraction technique, can even be below 1.4, which is exceptional for a solidification process such as a crystallisation process. In general, for the process according to the present invention the span preferably is below 3. More preferably, the span is below 2.5, and most preferably below 2.
The following procedure was applied for the production of sodium chloride crystals using the antisolvent crystallisation process according to the present invention. All experiments were performed at ambient conditions. The resulting crystals were analysed by SEM (Scanning Electron Microscopy) and CSD (Crystal Size Distribution) measurements by means of laser diffraction using a Mastersizer 2000 apparatus of Malvern Instruments with a Fraunhofer model for data analysis.
The following procedure was applied for the production of 3-ketodesogestrel using the antisolvent crystallisation of the present invention. All experiments were performed at ambient conditions. The resulting crystals were analysed using CSD measurements that were measured via conventional laser diffraction technique.
A 3-ketodesogestrel solution was prepared of 97 g 3-ketodesogestrel in 5 l of ethanol. Water was used as antisolvent. For dosing, a Microdyn® type SE020TP1N membrane with an average pore size of 1 μm was used. The 3-ketodesogestrel solution was dosed from the outside of the membrane to the antisolvent on the inside of the membrane. The speed of the antisolvent was set to 45 l/hr. The speed of the 3-ketodesogestrel flow was set to 0.41 l/hr. Again, a gear pump was used to control the velocities. The crystals thus obtained were collected using filtration, washed with 100% ethanol, and subsequently dried in an oven. […] The span was determined to be 1.7. Herein d50, d10; and d90 can be understood to mean that 50%, 10%, and 90%, respectively, of the particles have a particle size smaller than or equal to the indicated value.
The following procedure was applied for the production of progesteron. All experiments were performed at ambient conditions. The resulting crystals were analysed by CSD measurements by means of laser diffraction using a Mastersizer 2000 apparatus of Malvern Instruments with a Fraunhofer model for data analysis.

[3] = Example 1, 25 wt % NaCl solution 60 l/hr into ethanol antisolvent 50 l/hr, SPG membrane pore-size 1.1 μm
[4] = Example 5, 34 mg tibolone in 1 kg ethanol, 65 l/hr, antisolvent 90 wt % water/10 wt % ethanol, 151/hr, SPG membrane 1.1 μm
[5] = Entry 1, antisolvent flow 45 l/h, 3-ketodesogestrel flow 0.7 l/h, Microdyn membrane pore size 1 μm
[6] = Entry 2, antisolvent flow 45 l/h, 3-ketodesogestrel flow 0.4 l/h, Microdyn membrane pore size 1 μm
[7] = Entry 3, antisolvent flow 45 l/h, 3-ketodesogestrel flow 6.2 l/h, Microdyn membrane pore size 1 μm
[8] = Entry 4, antisolvent flow 90 l/h, 3-ketodesogestrel flow 0.7 l/h, Microdyn membrane pore size 1 μm
[9] = Entry 5, antisolvent flow 90 l/h, 3-ketodesogestrel flow 5.0 l/h, Microdyn membrane pore size 1 μm
[10] = Entry 6, antisolvent flow 45 l/h, 3-ketodesogestrel flow 10 l/h, Microdyn membrane pore size 1 μm
[11] = Entry 7, antisolvent flow 45 l/h, 3-ketodesogestrel flow 42 l/h, Microdyn membrane pore size 1 μm
[12] = Entry 8, antisolvent flow 45 l/h, 3-ketodesogestrel flow 20 l/h, Microdyn membrane pore size 1 μm
[13] = Example 2, 97 g in 5 l ethanol, flow 0.41 l/hr, water antisolvent 45 l/hr, Microdyn membrane 1 μm
[14] = Entry 1, antisolvent 100 wt % water, 0 wt % ethanol, 45 l/h, progesteron solution 50 g per litre ethanol, 12 l/h, Microdyn membrane 1 μm
[15] = Entry 2, antisolvent 85 wt % water, 15 wt % ethanol, 45 l/h, progesteron solution 50 g per litre ethanol, 12 l/h, Microdyn membrane 1 μm
[16] = Entry 3, antisolvent 70 wt % water, 30 wt % ethanol, 45 l/h, progesteron solution 50 g per litre ethanol, 12 l/h, Microdyn membrane 1 μm

In the case of `[Cl-].[Na+]` [sodium chloride], the Span [1, 3] is reported as 1.5, the “average crystal size d50” value [2, 3] is reported as 40 μm and the Span ([2]; Example 1 additional experiment, stirring rod 630 rpm inside membrane, salt solution 40 l/hr, ethanol 50 l/hr) is reported as 1.2.
`C#CC1(O)CCC2C3C(CCC21C)C1=C(CC(=O)CC1)C[C@H]3C` (stereo partly shown) [tibolone, (7alfa, 17alfa)-17-hydroxy-7-methyl-19-nor-pregn-5(10)-en-20-yn-3-one] showed a d10 [1, 4] of 3.8 μm, a d50 [1, 4] of 18.2 μm and a d90 [2, 4] of 51.3 μm.
In the case of `C#C[C@]1(O)CC[C@H]2[C@@H]3CCC4=CC(=O)CC[C@@H]4[C@H]3C(=C)C[C@@]21CC` [3-ketodesogestrel, (17alfa)-17-hydroxy-13-ethyl-11-methylene-18,19-dinorpregn-4-en-20-yn-3-one], the Span [1, 5] is reported as 1.6, the d10 [1, 5] is reported as 3 µm and the d50 [1, 5] is reported as 11 µm. It also gave a d90 [1, 5] of 21 µm, a Span [1, 6] of 1.7 and a d10 [1, 6] of 3 µm. It also gave a d90 [1, 6] of 20 µm, a Span [1, 7] of 2.5 and a d10 [1, 7] of 5 µm. The d50 [1, 7] was 16 µm, the d90 [1, 7] was 45 µm and the Span [1, 8] was 1.9. It also gave a d10 [1, 8] of 4 µm, a d50 [1, 8] of 10 µm and a d90 [1, 8] of 23 µm. For the same compound, the Span [1, 9] was 2.9, the d10 [1, 9] was 2 µm and the d50 [1, 9] was 7 µm. The d90 [1, 9] was 22 µm, the Span [1, 10] was 2.8 and the d10 [1, 10] was 2 µm. The d50 [1, 10] was 8 µm, the d90 [1, 10] was 24 µm and the Span [1, 11] was 1.9. For the same compound, the d10 [1, 11] was 12 µm, the d50 [1, 11] was 42 µm and the d90 [1, 11] was 90 µm. The Span [1, 12] was 3, the d10 [1, 12] was 2 µm and the d50 [1, 12] was 9 µm. For the same compound, the d90 [1, 12] was 29 µm, the d90 [1, 13] was 20 μm and the d50 [2, 6] was 10 µm. For the same compound, the Span [2, 13] was 1.7, the d10 [2, 13] was 3 μm and the d50 [2, 13] was 10 μm.
In the case of `CC(=O)[C@H]1CC[C@H]2[C@@H]3CCC4=CC(=O)CC[C@]4(C)[C@H]3CC[C@]12C` [progesteron, pregn-4-ene-3,20-dione], the Span [1, 14] is reported as 2, the “d10” value [1, 14] is reported as 2 and the “d50” value [1, 14] is reported as 7. The Span [1, 15] was 1.8, the “d50” value [1, 15] was 12 and the “d10” value [1, 16] was 7. For the same compound, the “d50” value [1, 16] was 21, the “d90” value [1, 16] was 43 and the “d90” value [2, 14] was 16. The “d10” value [2, 15] was 4, the “d90” value [2, 15] was 25 and the Span [2, 16] was 1.7. The “span, in words” value ([2]; all antisolvent compositions of Table 2) was “surprisingly small span”.
